Measurements as given in PubChem BioAssay AID190 (DTP/NCI, 2004).
Where “and” joins values, the source holds several entries; their conditions need not be identical. Equal values may be shown once. Inconclusive results and toxic doses are left out.

Tested on: AKR/Lw mice, AKR lymphoma ip, median survival T/C
Assay: NCI In Vivo Anticancer Drug Screen. Data for tumor model Lymphoma AKR (Transplanted) (intraperitoneal) in AKR/Lw mice
Settings: endpoint: median survival time, higher = longer survival
Description: The antitumor activity of compounds was measured in mice bearing transplantable tumors. Survival or tumor size were measured and the results are expressed as the measurement made in the treated group (T) divided by the measurement made in the vehicle treated control group (C). The tumor model used in this assay is Lymphoma AKR (Transplanted) (intraperitoneal) in AKR/Lw mice

[1] = dose: 12.5 mg/kg/injection, schedule: Q01DX001 (ip), vehicle: saline
[2] = dose: 25.0 mg/kg/injection, schedule: Q01DX001 (ip), vehicle: saline
[3] = dose: 50.0 mg/kg/injection, schedule: Q01DX001 (ip), vehicle: saline

O=c1[nH]cc(F)c(=O)[nH]1
T/C (dose: 1.25 mg/kg/injection, schedule: Q01DX005 (ip), vehicle: saline): 152 % of control
T/C (dose: 1.25 mg/kg/injection, schedule: Q03HX032 (ip), vehicle: saline): 118 % of control
T/C (dose: 2.5 mg/kg/injection, schedule: Q01DX005 (ip), vehicle: saline): 114 % of control
T/C (dose: 2.5 mg/kg/injection, schedule: Q01DX015 (ip), vehicle: saline): 113 % of control
T/C (dose: 3.1 mg/kg/injection, schedule: Q04DX003 (ip), vehicle: saline): 123 % of control
T/C (dose: 5.0 mg/kg/injection, schedule: Q01DX001 (ip), vehicle: saline): 102 % of control
T/C (dose: 5.0 mg/kg/injection, schedule: Q01DX009 (ip), vehicle: saline): 100 % of control and 106 % of control
T/C (dose: 5.0 mg/kg/injection, schedule: Q01DX015 (ip), vehicle: saline): 108 % of control
T/C (dose: 5.0 mg/kg/injection, schedule: Q04DX003 (ip), vehicle: saline): 97 % of control
T/C (dose: 5.0 mg/kg/injection, schedule: Q04DX004 (ip), vehicle: saline): 115 % of control
T/C (dose: 5.0 mg/kg/injection, schedule: Q##DX003 (ip), vehicle: saline): 97 % of control
T/C (dose: 6.2 mg/kg/injection, schedule: Q01DX001 (ip), vehicle: saline): 104 % of control
T/C (dose: 6.2 mg/kg/injection, schedule: Q04DX003 (ip), vehicle: saline): 113 % of control
T/C (dose: 7.5 mg/kg/injection, schedule: Q01DX009 (ip), vehicle: saline): 105 % of control
T/C (dose: 9.0 mg/kg/injection, schedule: Q04DX003 (ip), vehicle: saline): 112 % of control
T/C (dose: 10.0 mg/kg/injection, schedule: Q01DX001 (ip), vehicle: saline): 94 % of control
T/C (dose: 10.0 mg/kg/injection, schedule: Q01DX009 (ip), vehicle: saline with Tween-80): 118 % of control
T/C (dose: 10.0 mg/kg/injection, schedule: Q01DX015 (ip), vehicle: saline): 180 % of control
T/C (dose: 10.0 mg/kg/injection, schedule: Q04DX003 (ip), vehicle: saline): 168 % of control
T/C (dose: 10.0 mg/kg/injection, schedule: Q##DX003 (ip), vehicle: saline): 168 % of control
T/C [1]: 100 % of control and 121 % of control
T/C (dose: 15.0 mg/kg/injection, schedule: Q01DX009 (ip), vehicle: saline): 113 % of control
T/C (dose: 15.0 mg/kg/injection, schedule: Q01DX015 (ip), vehicle: saline): 150 % of control and 177 % of control
T/C (dose: 15.0 mg/kg/injection, schedule: Q04DX004 (ip), vehicle: saline): 113 % of control
T/C (dose: 18.0 mg/kg/injection, schedule: Q04DX003 (ip), vehicle: water): 98 % of control
T/C (dose: 20.0 mg/kg/injection, schedule: Q01DX001 (ip), vehicle: saline): 105 % of control
T/C (dose: 20.0 mg/kg/injection, schedule: Q01DX005 (ip), vehicle: saline): 161 % of control
T/C (dose: 20.0 mg/kg/injection, schedule: Q01DX009 (ip), vehicle: saline with Tween-80): 122 % of control
T/C (dose: 20.0 mg/kg/injection, schedule: Q01DX015 (ip), vehicle: saline): 167 % of control
T/C (dose: 20.0 mg/kg/injection, schedule: Q03HX024 (ip), vehicle: saline): 95 % of control
T/C (dose: 20.0 mg/kg/injection, schedule: Q04DX003 (ip), vehicle: saline): 107 % of control
T/C (dose: 20.0 mg/kg/injection, schedule: Q##DX003 (ip), vehicle: saline): 107 % of control
T/C (dose: 24.0 mg/kg/injection, schedule: Q04DX003 (ip), vehicle: water): 119 % of control
T/C [2]: 109 % of control and 116 % of control
T/C (dose: 30.0 mg/kg/injection, schedule: Q01DX005 (ip), vehicle: saline): 161 % of control
T/C (dose: 30.0 mg/kg/injection, schedule: Q01DX009 (ip), vehicle: saline): 177 % of control
T/C (dose: 30.0 mg/kg/injection, schedule: Q04DX004 (ip), vehicle: saline): 107 % of control
T/C (dose: 36.0 mg/kg/injection, schedule: Q04DX003 (ip), vehicle: water): 163 % of control
T/C (dose: 40.0 mg/kg/injection, schedule: Q01DX009 (ip), vehicle: saline with Tween-80): 86 % of control
T/C (dose: 40.0 mg/kg/injection, schedule: Q04DX004 (ip), vehicle: saline): 168 % of control
T/C (dose: 40.0 mg/kg/injection, schedule: Q##DX003 (ip), vehicle: saline): 97 % of control
T/C (dose: 45.0 mg/kg/injection, schedule: Q04DX004 (ip), vehicle: saline): 123 % of control and 291 % of control
T/C (dose: 60.0 mg/kg/injection, schedule: Q04DX003 (ip), vehicle: saline): 89 % of control
T/C (dose: 60.0 mg/kg/injection, schedule: Q04DX004 (ip), vehicle: saline): 157 % of control and 352 % of control
T/C (dose: 60.0 mg/kg/injection, schedule: Q04DX008 (ip), vehicle: saline): 108 % of control
T/C (dose: 75.0 mg/kg/injection, schedule: Q01DX001 (ip), vehicle: saline): 150 % of control and 166 % of control
T/C (dose: 75.0 mg/kg/injection, schedule: Q04DX003 (ip), vehicle: saline): 260 % of control
T/C (dose: 75.0 mg/kg/injection, schedule: Q04DX004 (ip), vehicle: saline): 88 % of control
T/C (dose: 80.0 mg/kg/injection, schedule: Q04DX003 (ip), vehicle: saline): 99 % of control
T/C (dose: 150.0 mg/kg/injection, schedule: Q04DX003 (ip), vehicle: saline): 105 % of control
T/C (dose: 300.0 mg/kg/injection, schedule: Q04DX003 (ip), vehicle: saline): 88 % of control

Cc1c(N)nc([C@H](CC(N)=O)NC[C@H](N)C(N)=O)nc1C(=O)N[C@H](C(=O)N[C@H](C)[C@@H](O)[C@H](C)C(=O)N[C@H](C(=O)NCCc1nc(-c2nc(C(=O)NCCC[S+](C)C)cs2)cs1)[C@@H](C)O)C(OC1OC(CO)C(O)C(O)C1OC1OC(CO)C(O)C(OC(N)=O)C1O)c1cnc[nH]1 (stereo partly drawn)
T/C (dose: 0.05 mg/kg/injection, schedule: Q01DX010 (ip), vehicle: saline): 120 % of control
T/C (dose: 0.1 mg/kg/injection, schedule: Q01DX010 (ip), vehicle: saline): 103 % of control
T/C (dose: 0.25 mg/kg/injection, schedule: Q01DX010 (ip), vehicle: saline): 116 % of control
T/C (dose: 0.4 mg/kg/injection, schedule: Q01DX010 (ip), vehicle: saline): 113 % of control
T/C (dose: 0.5 mg/kg/injection, schedule: Q01DX010 (ip), vehicle: saline): 106 % of control
T/C (dose: 0.75 mg/kg/injection, schedule: Q01DX010 (ip), vehicle: saline): 106 % of control
T/C (dose: 1.0 mg/kg/injection, schedule: Q01DX010 (ip), vehicle: saline): 100 % of control
T/C (dose: 1.5 mg/kg/injection, schedule: Q01DX010 (ip), vehicle: saline): 93 % of control
T/C (dose: 1.9 mg/kg/injection, schedule: Q01DX010 (ip), vehicle: saline): 95 % of control
T/C (dose: 2.0 mg/kg/injection, schedule: Q01DX010 (ip), vehicle: saline): 100 % of control

COC(=O)C1(C)CCC(c2ccc(OC)cc2)CC1=O (stereo not drawn)
T/C [3]: 113 % of control
T/C (dose: 50.0 mg/kg/injection, schedule: Q04DX003 (ip), vehicle: Klucel (hydroxypropylcellulose) (HPC)): 93 % of control
T/C (dose: 100.0 mg/kg/injection, schedule: Q01DX001 (ip), vehicle: saline): 105 % of control
T/C (dose: 100.0 mg/kg/injection, schedule: Q04DX003 (ip), vehicle: Klucel (hydroxypropylcellulose) (HPC)): 106 % of control
T/C (dose: 200.0 mg/kg/injection, schedule: Q01DX001 (ip), vehicle: saline): 105 % of control
T/C (dose: 200.0 mg/kg/injection, schedule: Q04DX003 (ip), vehicle: Klucel (hydroxypropylcellulose) (HPC)): 112 % of control

COC(=O)c1ccc(NCC(C)(C)N)cc1
T/C [1]: 100 % of control
T/C [2]: 94 % of control
T/C [3]: 88 % of control

COc1cc([C@@H]2c3cc4c(c(O)c3C[C@H]3COC(=O)[C@@H]32)OCO4)cc(OC)c1O
T/C (dose: 0.12 mg/kg/injection, schedule: Q01DX009 (ip), vehicle: Klucel (hydroxypropylcellulose) (HPC)): 105 % of control
T/C (dose: 0.25 mg/kg/injection, schedule: Q01DX009 (ip), vehicle: Klucel (hydroxypropylcellulose) (HPC)): 97 % of control

CO[C@H](C(=O)[C@@H](O)[C@@H](C)O)[C@@H]1Cc2cc3cc(OC4CC(OC5CC(O)C(O)C(C)O5)C(O)C(C)O4)c(C)c(O)c3c(O)c2C(=O)[C@H]1OC1CC(OC2CC(OC3CC(C)(O)C(O)C(C)O3)C(O)C(C)O2)C(O)C(C)O1 (stereo partly drawn)
T/C (dose: 0.12 mg/kg/injection, schedule: Q01DX009 (ip), vehicle: saline): 115 % of control
T/C (dose: 0.25 mg/kg/injection, schedule: Q01DX009 (ip), vehicle: water): 95 % of control
T/C (dose: 0.5 mg/kg/injection, schedule: Q01DX009 (ip), vehicle: water): 110 % of control

COc1ccc(N2CSC(=S)N(c3ccc(OC)cc3)C2)cc1
T/C (dose: 100.0 mg/kg/injection, schedule: Q01DX001 (ip), vehicle: Klucel (hydroxypropylcellulose) (HPC)): 88 % of control
T/C (dose: 200.0 mg/kg/injection, schedule: Q01DX001 (ip), vehicle: Klucel (hydroxypropylcellulose) (HPC)): 88 % of control
T/C (dose: 400.0 mg/kg/injection, schedule: Q01DX001 (ip), vehicle: Klucel (hydroxypropylcellulose) (HPC)): 92 % of control
